# Laboratory results taken from US9505726B2, “Substituted biphenyl amides as P2X3 and P2X2/3 antagonists” (Roche Palo Alto LLC, priority 2009, dated 2016).
# Target: T1, rat P2X3 receptor (Rattus norvegicus, UniProt P49654)
# T1 construct: expressed in transfected cells; host or cells: CHO-K1
# T1 sequence (P49654 1-397): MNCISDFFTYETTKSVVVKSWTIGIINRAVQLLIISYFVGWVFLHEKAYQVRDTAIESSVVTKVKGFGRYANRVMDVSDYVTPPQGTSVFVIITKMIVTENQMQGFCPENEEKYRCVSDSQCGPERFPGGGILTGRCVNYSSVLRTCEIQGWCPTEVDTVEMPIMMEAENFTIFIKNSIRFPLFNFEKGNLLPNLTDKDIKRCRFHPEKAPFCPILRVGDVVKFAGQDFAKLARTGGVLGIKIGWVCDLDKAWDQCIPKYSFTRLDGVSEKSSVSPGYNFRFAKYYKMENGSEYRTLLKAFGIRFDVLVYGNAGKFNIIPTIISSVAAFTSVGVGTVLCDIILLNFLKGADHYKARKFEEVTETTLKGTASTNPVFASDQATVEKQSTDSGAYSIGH
# Experiment: P2X3 FLIPR (Fluorometric Imaging Plate Reader) assay
# Assay type: cell-based
# Conditions: CHO-K1 cells transfected with cloned rat P2X3; agonist α,β-meATP 1 μM; Fluo-3 AM calcium fluorescence
# Description: CHO-K1 cells were transfected with cloned rat P2X3 or human P2X2/3 receptor subunits and passaged in flasks. 18-24 hours before the FLIPR experiment, cells were released from their flasks, centrifuged, and resuspended in nutrient medium at 2.5×10^5 cells/ml. The cells were aliquoted into black-walled 96-well plates at a density of 50,000 cells/well and incubated overnight in 5% CO2 at 37° C. On the day of the experiment, cells were washed in FLIPR buffer (calcium- and magnesium-free Hank's balanced salt solution, 10 mM HEPES, 2 mM CaCl2, 2.5 mM probenecid; FB). Each well received 100 μl FB and 100 μl of the fluorescent dye Fluo-3 AM [2 μM final conc.]. After a 1 hour dye loading incubation at 37° C., the cells were washed 4 times with FB, and a final 75 μl/well FB was left in each well.
# Test compounds (dissolved in DMSO at 10 mM and serially diluted with FB) or vehicle were added to each well (25 μl of a 4× solution) and allowed to equilibrate for 20 minutes at room temperature. The plates were then placed in the FLIPR and a baseline fluorescence measurement (excitation at 488 nm and emission at 510-570 nm) was obtained for 10 seconds before a 100 μl/well agonist or vehicle addition. The agonist was a 2X solution of α,β-meATP producing a final concentration of 1 μM (P2X3) or 5 μM (P2X2/3). Fluorescence was measured for an additional 2 minutes at 1 second intervals after agonist addition. A final addition of ionomycin (5 μM, final concentration) was made to each well of the FLIPR test plate to establish cell viability and maximum fluorescence of dye-bound cytosolic calcium. Peak fluorescence in response to the addition of α,β-meATP (in the absence and presence of test compounds) was measured and inhibition curves generated using nonlinear regression. PPADS, a standard P2X antagonist, was used as a positive control.
row,P2X3 (pIC50 values for the P2X3 receptor),SMILES
1,6.05,"CC(=O)N(C)c1cc(C(=O)NC(C)c2cnccn2)cc(-c2ccc(C)cc2)c1 (stereo not drawn) [Compound 20, 5-(Acetyl-methyl-amino)-4′-methyl-biphenyl-3-carboxylic acid (1-pyrazin-2-yl-ethyl)-amide]"
2,8.16,"Cc1ccc(-c2cc(C(=O)N[C@@H](C)CO)cc(N(C)C(=O)C(C)C)c2)c(F)c1 [Compound 59, 2′-Fluoro-5-(isobutyryl-methyl-amino)-4′-methyl-biphenyl-3-carboxylic acid ((S)-2-hydroxy-1-methyl-ethyl)-amide]"
3,5.51,"COCC(C)NC(=O)c1cc(NC(=O)c2cccs2)cc(-c2ccc(C)cc2)c1 (stereo not drawn) [Compound 4, Thiophene-2-carboxylic acid [5-(2-methoxy-1-methyl-ethylcarbamoyl)-4′-methyl-biphenyl-3-yl]-amide]"
4,5.94,"COC[C@@H](C)NC(=O)c1cc(-c2ccc(Cl)cc2Cl)cc(N(C)C(=O)C(C)C)c1 [Compound 63, 2′,4′-Dichloro-5-(isobutyryl-methyl-amino)-biphenyl-3-carboxylic acid ((R)-2-methoxy-1-methyl-ethyl)-amide]"
5,5.44,"COCC(C)NC(=O)c1cc(NC(=O)c2ccc(F)cc2Cl)cc(-c2ccc(C)cc2)c1 (stereo not drawn) [Compound 9, 5-(2-Chloro-4-fluoro-benzoylamino)-4′-methyl-biphenyl-3-carboxylic acid (2-methoxy-1-methyl-ethyl)-amide]"
6,6.86,"CC(C)C(=O)N(C)c1cc(C(=O)N[C@@H](C)CO)cc(-c2ccc(Cl)cn2)c1 [Compound 69, 3-(5-Chloro-pyridin-2-yl)-N-((S)-2-hydroxy-1-methyl-ethyl)-5-(isobutyryl-methyl-amino)-benzamide]"
7,8.11,"CCN(C(=O)C(C)C)c1cc(C(=O)NC(C)c2cnccn2)cc(-c2ccc(C)cc2)c1 (stereo not drawn) [Compound 38, 5-(Ethyl-isobutyryl-amino)-4′-mcthyl-biphenyl-3-carboxylic acid (1-pyrazin-2-yl-ethyl)-amide]"
8,6.82,"CCN(C(=O)OCC(C)C)c1cc(C(=O)NC(C)c2cnccn2)cc(-c2ccc(C)cc2)c1 (stereo not drawn) [Compound 35, Ethyl-[4′-methyl-5-(1-pyrazin-2-yl-ethylcarbamoyl)-biphenyl-3-yl]-carbamic acid isobutyl ester]"
9,5.53,"Cc1ccc(-c2cc(NC(=O)C(C)C)cc(C(=O)NC(C)c3cnccn3)c2)cc1 (stereo not drawn) [Compound 42, 5-Isobutyrylamino-4′-methyl-biphenyl-3-carboxylic acid (1-pyrazin-2-yl-ethyl)-amide]"
10,6.16,"CCC(=O)N(c1cc(C(=O)NC(C)c2cnccn2)cc(-c2ccc(C)cc2)c1)c1ccncn1 (stereo not drawn) [Compound 25, 4′-Methyl-5-(propionyl-pyrimidin-4-yl-amino)-biphenyl-3-carboxylic acid (1-pyrazin-2-yl-ethyl)-amide]"
11,7.33,"CCN(C(=O)CC(C)C)c1cc(C(=O)NC(C)CO)cc(-c2ccc(C)cc2)c1 (stereo not drawn) [Compound 30, 5-[Ethyl-(3-methyl-butyryl)-amino]-4′-methyl-biphenyl-3-carboxylic acid (2-hydroxy-1-methyl-ethyl)-amide]"
12,7.55,"CCC(C)(C)C(=O)N(C)c1cc(C(=O)NC(C)c2cnccn2)cc(-c2ccc(C)cc2)c1 (stereo not drawn) [Compound 48, 5-[(2,2-Dimethyl-butyryl)-methyl-amino]-4′-methyl-biphenyl-3-carboxylic acid (1-pyrazin-2-yl-ethyl)-amide]"
13,5.3,"Cc1ccc(-c2cc(C(=O)NC(C)c3cnccn3)cc(N(C)C(=O)c3snnc3C)c2)cc1 (stereo not drawn) [Compound 36, 4-Methyl-[1,2,3]thiadiazole-5-carboxylic acid methyl-[4′-methyl-5-(1-pyrazin-2-yl-ethylcarbamoyl)-biphenyl-3-yl]-amide]"
14,5.9,"Cc1ccc(-c2cc(C(=O)NC(C)c3cnccn3)cc(N(C)C(=O)C3CCCCC3)c2)cc1 (stereo not drawn) [Compound 52, 5-(Cyclohexanecarbonyl-methyl-amino)-4′-methyl-biphenyl-3-carboxylic acid (1-pyrazin-2-yl-ethyl)-amide]"
15,5.34,"COCC(C)NC(=O)c1cc(NC(=O)c2cc(C)nn2C)cc(-c2ccc(C)cc2)c1 (stereo not drawn) [Compound 15, 2,5-Dimethyl-2H-pyrazole-3-carboxylic acid [5-(2-methoxy-1-methyl-ethylcarbamoyl)-4′-methyl-biphenyl-3-yl]-amide]"
16,5.35,"CCC(=O)N(C)c1cc(C(=O)NC(C)COC)cc(-c2ccc(C)cc2)c1 (stereo not drawn) [Compound 18, 4′-Methyl-5-(methyl-propionyl-amino)-biphenyl-3-carboxylic acid (2-methoxy-1-methyl-ethyl)-amide]"
17,7.58,"Cc1ccc(-c2cc(C(=O)N[C@@H](C)CO)cc(N(C)C(=O)C(C)C)c2)nc1 [Compound 72, N-((S)-2-Hydroxy-1-methyl-ethyl)-3-(isobutyryl-methyl-amino)-5-(5-methyl-pyridin-2-yl)-benzamide]"
18,5.38,"COC[C@@H](C)NC(=O)c1cc(-c2ccc(F)cc2F)cc(N(C)C(=O)C(C)C)c1 [Compound 65, 2′,4′-Difluoro-5-(isobutyryl-methyl-amino)-biphenyl-3-carboxylic acid ((R)-2-methoxy-1-methyl-ethyl)-amide]"
19,5.4,"CCN(C(=O)c1ccncc1)c1cc(C(=O)NC(C)COC)cc(-c2ccc(C)cc2)c1 (stereo not drawn) [Compound 28, N-Ethyl-N-[5-(2-methoxy-1-methyl-ethylcarbamoyl)-4′-methyl-biphenyl-3-yl]-isonicotinamide]"
20,5.91,"CCN(C(=O)c1cccnc1)c1cc(C(=O)NC(C)c2cnccn2)cc(-c2ccc(C)cc2)c1 (stereo not drawn) [Compound 31, N-Ethyl-N-[4′-methyl-5-(1-pyrazin-2-yl-ethylcarbamoyl)-biphenyl-3-yl]-nicotinamide]"
21,6.63,"CC(C)C(=O)N(C)c1cc(C(=O)NC(C)c2cnccn2)cc(-c2ccc(F)cc2F)c1 (stereo not drawn) [Compound 66, 2′,4′-Difluoro-5-(isobutyryl-methyl-amino)-biphenyl-3-carboxylic acid (1-pyrazin-2-yl-ethyl)-amide]"
22,6.29,"Cc1ccc(-c2cc(C(=O)NC(C)c3cnccn3)cc(N(C)C(=O)C(C)C)c2)c(Cl)c1 (stereo not drawn) [Compound 54, 2′-Chloro-5-(isobutyryl-methyl-amino)-4′-methyl-biphenyl-3-carboxylic acid (1-pyrazin-2-yl-ethyl)-amide]"
23,5.38,"CCNC(=O)N(C)c1cc(C(=O)NC(C)c2cnccn2)cc(-c2ccc(Cl)cc2)c1 (stereo not drawn) [Compound 45, 4′-Chloro-5-(3-ethyl-1-methyl-ureido)-biphenyl-3-carboxylic acid (1-pyrazin-2-yl-ethyl)-amide]"
24,8.38,"CCN(C(=O)C(C)C)c1cc(C(=O)N[C@@H](C)CO)cc(-c2ccc(C)cc2)c1 [Compound 49, 5-(Ethyl-isobutyryl-amino)-4′-methyl-biphenyl-3-carboxylic acid ((S)-2-hydroxy-1-methyl-ethyl)-amide]"
25,5.69,"COCC(C)NC(=O)c1cc(NC(=O)c2ccccc2)cc(-c2ccc(C)cc2)c1 (stereo not drawn) [Compound 5, 5-Benzoylamino-4′-methyl-biphenyl-3-carboxylic acid (2-methoxy-1-methyl-ethyl)-amide]"
26,6.99,"Cc1ccc(-c2cc(C(=O)NC(C)c3cnccn3)cc(N(C(=O)C(C)C)c3ccncn3)c2)cc1 (stereo not drawn) [Compound 26, 5-(Isobutyryl-pyrimidin-4-yl-amino)-4′-methyl-biphenyl-3-carboxylic acid (1-pyrazin-2-yl-ethyl)-amide]"
27,6.88,"CCC(=O)N(C)c1cc(C(=O)N[C@H](C)CN2CCOCC2)cc(-c2ccc(C)cc2)c1 [Compound 19, 4′-Methyl-5-(methyl-propionyl-amino)-biphenyl-3-carboxylic acid ((R)-1-methyl-2-morpholin-4-yl-ethyl)-amide]"
